Assays:
enterovirus type 71 = experiment: Neutralization test; format: cell-based, enterovirus 71/Tw/2231/98; settings: concentration of 10 mg/ml; RD cells, crystal violet OD570nm
Experimental: In this embodiment, enterovirus 71/Tw/2231/98 obtained from Virology Lab of Chang Gung Memorial Hospital is diluted with fetal bovine serum free culture medium. Culture the RD cells in DMEM containing 10% fetal bovine serum. When the cells are 90% cultured, wash with 1×PBC once and add the aforesaid diluted virus fluid into the culture medium. Place the medium in the 5% CO2, 35° C. incubator for inoculation for one hour and then add DMEM containing 2% fetal bovine serum. Place the medium in 5% CO2, 35° C. incubator. When over 95% of the cells become round and drop off, collect the supernatant. After centrifuge, freezing and thawing, refrigerate the virus supernatant under −80° C.
In this embodiment, cultured cells from Embodiment 3 are cultured in 96-well plate. After mixing fixed-quantity of virus fluid with the tested compound, add in culture medium for inoculation for one hour, and then add in DMEM containing 2% fetal bovine serum. Place the medium in 5% CO2, 35° C. incubator for 3–4 days. To read the test result, add 5% formalin to fixate for 1–2 hours and dye with 0.1% crystal violet for 2–3 minutes. Rinse with water and measure OD570nm values.

RD cells = experiment: Toxicity test; format: cell-based; settings: 3-4 days, crystal violet OD570nm
Experimental: In this embodiment, rhabdomyosarcoma (RD) cells obtained from the Virology Lab of Chang Gung Memorial Hospital are cultured in DMEM (Gibco) containing 10% fetal bovine serum and placed in 5% CO2, 37° C. incubator. In successive culture, the cells are rinsed twice with 1× PBS and then added with proper amount of 0.25% trypsin-EDTA (Gibco) for cell treatment. After the cells drop off from the surface of culture dish, add DMBM medium containing 10% fetal bovine serum to disperse the cells evenly in the culture dishes. Place the dishes into 5% CO2, 37° C. incubator to continue the culturing.
In this embodiment, cultured cells from Embodiment 3 are cultured in 96-well plate. After the cells are mixed with the tested compound for one hour, add DMEM containing 2% fetal bovine serum, and place the medium in 5% CO2, 35° C. incubator for 3–4 days. To read the test result, add 5% formalin to fixate for 1–2 hours and dye with 0.1% crystal violet (J. T. Baker) for 2–3 minutes. Rinse with water and measure OD570nm values.

Row | Structure (SMILES) | inhibitory effect on enterovirus type 71 (enterovirus type 71) [%] | LC50 (RD cells) [µg/mL]
1 | C[n+]1ccn(CC(O)Cn2cc[n+](C)c2)c1.[Br-].[Br-] [dibromo 1,1′-glyceryl-bis (3-methyl-1H-imidazole)] | 32 | 8400
2 | OC(C[n+]1ccccc1)C[n+]1ccccc1.[Br-].[Br-] [dibromo 1,1′-glyceryl-bispyridine] | 30 | 9200
